What was measured:
Assay in all cases: relative viability (nuclei count vs DMSO), 5 days (fraction); higher = more cells survive
BEN = tested on: BEN
In short: (§1)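 Relative viability is defined as nuclei in treated wells over nuclei in vehicle wells. Duplicate plates were run and medians reported. Lung cancer cell lines in 1536-well plates were dosed by pin tool one day after seeding, with one drug or with a fixed anchor-drug dose plus five library-drug doses (not always all listed) in √10 steps, and nuclei were counted after 5 days.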

NCI-H2170 = tested on: NCI-H2170
In short: as §1

HCC-44 = tested on: HCC-44
In short: as §1

NCI-H2087 = tested on: NCI-H2087
In short: as §1

EKVX = tested on: EKVX
In short: as §1

NCI-H647 = tested on: NCI-H647
In short: as §1

LOU-NH91 = tested on: LOU-NH91
In short: as §1

PC-3 [JPC-3] = tested on: PC-3 [JPC-3]
In short: as §1

201T = tested on: 201T
In short: as §1

NCI-H650 = tested on: NCI-H650
In short: as §1

NCI-H1437 = tested on: NCI-H1437
In short: as §1

LU99A = tested on: LU99A
In short: as §1

SW 1573 = tested on: SW 1573
In short: as §1

NCI-H2085 = tested on: NCI-H2085
In short: as §1

NCI-H1975 = tested on: NCI-H1975
In short: as §1

EPLC-272H = tested on: EPLC-272H
In short: as §1

H3255 = tested on: H3255
In short: as §1

NCI-H1666 = tested on: NCI-H1666
In short: as §1

LCLC-97TM1 = tested on: LCLC-97TM1
In short: as §1

HCC-827 = tested on: HCC-827
In short: as §1

COR-L 105 = tested on: COR-L 105
In short: as §1

Question: How did the relative viability (BEN; first compound 0.04 µM) turn out when `Cc1sc2c(c1C)C(c1ccc(Cl)cc1)=N[C@@H](CC(=O)OC(C)(C)C)c1nnc(C)n1-2` [JQ1] + Cc1nc(NC(=O)N2CCC[C@H]2C(N)=O)sc1-c1ccnc(C(C)(C)C(F)(F)F)c1 [Alpelisib] (partner 2 µM) was run?
Answer: 0.953

Question: And the relative viability (BEN; first compound 0.1265 µM)?
Answer: 0.918

Question: And the relative viability (BEN; first compound 0.4 µM)?
Answer: 0.594

Question: What about the relative viability (BEN; first compound 1.265 µM) of the same compound?
Answer: 0.332

Question: And the relative viability (BEN; first compound 4 µM)?
Answer: 0.273

Question: And the relative viability (NCI-H2170; first compound 0.04 µM)?
Answer: 0.811

Question: And the relative viability (NCI-H2170; first compound 0.1265 µM)?
Answer: 0.801

Question: And the relative viability (NCI-H2170; first compound 0.4 µM)?
Answer: 0.689

Question: What about the relative viability (NCI-H2170; first compound 1.265 µM) of the same compound?
Answer: 0.403

Question: And the relative viability (NCI-H2170; first compound 4 µM)?
Answer: 0.34

Question: And the relative viability (HCC-44; first compound 0.04 µM)?
Answer: 0.809

Question: What about the relative viability (HCC-44; first compound 0.1265 µM) of the same compound?
Answer: 0.518

Question: And the relative viability (HCC-44; first compound 0.4 µM)?
Answer: 0.37

Question: And the relative viability (HCC-44; first compound 1.265 µM)?
Answer: 0.251

Question: What about the relative viability (HCC-44; first compound 4 µM) of the same compound?
Answer: 0.238

Question: What about the relative viability (NCI-H2087; first compound 0.04 µM) of the same compound?
Answer: 1.08

Question: And the relative viability (NCI-H2087; first compound 0.4 µM)?
Answer: 0.811

Question: And the relative viability (NCI-H2087; first compound 1.265 µM)?
Answer: 0.625

Question: And the relative viability (NCI-H2087; first compound 4 µM)?
Answer: 0.438

Question: And the relative viability (EKVX; first compound 0.04 µM)?
Answer: 0.834

Question: What about the relative viability (EKVX; first compound 0.1265 µM) of the same compound?
Answer: 0.8

Question: What about the relative viability (EKVX; first compound 0.4 µM) of the same compound?
Answer: 0.688

Question: What about the relative viability (EKVX; first compound 1.265 µM) of the same compound?
Answer: 0.729

Question: What about the relative viability (EKVX; first compound 4 µM) of the same compound?
Answer: 0.664

Question: What about the relative viability (NCI-H647; first compound 0.04 µM) of the same compound?
Answer: 0.998

Question: And the relative viability (NCI-H647; first compound 0.1265 µM)?
Answer: 0.596

Question: And the relative viability (NCI-H647; first compound 0.4 µM)?
Answer: 0.447

Question: And the relative viability (NCI-H647; first compound 1.265 µM)?
Answer: 0.156

Question: And the relative viability (NCI-H647; first compound 4 µM)?
Answer: 0.132

Question: What about the relative viability (LOU-NH91; first compound 0.04 µM) of the same compound?
Answer: 0.683

Question: What about the relative viability (LOU-NH91; first compound 0.1265 µM) of the same compound?
Answer: 0.664

Question: And the relative viability (LOU-NH91; first compound 0.4 µM)?
Answer: 0.458

Question: And the relative viability (LOU-NH91; first compound 1.265 µM)?
Answer: 0.491

Question: What about the relative viability (LOU-NH91; first compound 4 µM) of the same compound?
Answer: 0.473

Question: And the relative viability (PC-3 [JPC-3]; first compound 0.04 µM)?
Answer: 1.06

Question: And the relative viability (PC-3 [JPC-3]; first compound 0.1265 µM)?
Answer: 1.03

Question: And the relative viability (PC-3 [JPC-3]; first compound 0.4 µM)?
Answer: 1.09

Question: And the relative viability (PC-3 [JPC-3]; first compound 1.265 µM)?
Answer: 0.775

Question: What about the relative viability (PC-3 [JPC-3]; first compound 4 µM) of the same compound?
Answer: 0.608

Question: And the relative viability (201T; first compound 0.04 µM)?
Answer: 1.02

Question: What about the relative viability (201T; first compound 0.1265 µM) of the same compound?
Answer: 0.926

Question: And the relative viability (201T; first compound 0.4 µM)?
Answer: 0.939

Question: And the relative viability (201T; first compound 1.265 µM)?
Answer: 0.715

Question: What about the relative viability (201T; first compound 4 µM) of the same compound?
Answer: 0.567

Question: What about the relative viability (NCI-H650; first compound 0.04 µM) of the same compound?
Answer: 1.11

Question: What about the relative viability (NCI-H650; first compound 0.1265 µM) of the same compound?
Answer: 0.715

Question: What about the relative viability (NCI-H650; first compound 0.4 µM) of the same compound?
Answer: 0.707

Question: And the relative viability (NCI-H650; first compound 1.265 µM)?
Answer: 0.377

Question: And the relative viability (NCI-H650; first compound 4 µM)?
Answer: 0.257

Question: And the relative viability (NCI-H1437; first compound 0.04 µM)?
Answer: 0.871

Question: And the relative viability (NCI-H1437; first compound 0.1265 µM)?
Answer: 0.803

Question: And the relative viability (NCI-H1437; first compound 0.4 µM)?
Answer: 0.515

Question: What about the relative viability (NCI-H1437; first compound 1.265 µM) of the same compound?
Answer: 0.284

Question: And the relative viability (NCI-H1437; first compound 4 µM)?
Answer: 0.216

Question: What about the relative viability (LU99A; first compound 0.04 µM) of the same compound?
Answer: 0.537

Question: And the relative viability (LU99A; first compound 0.1265 µM)?
Answer: 0.544

Question: What about the relative viability (LU99A; first compound 0.4 µM) of the same compound?
Answer: 0.424

Question: What about the relative viability (LU99A; first compound 1.265 µM) of the same compound?
Answer: 0.307

Question: What about the relative viability (LU99A; first compound 4 µM) of the same compound?
Answer: 0.235

Question: And the relative viability (SW 1573; first compound 0.04 µM)?
Answer: 0.808

Question: What about the relative viability (SW 1573; first compound 0.1265 µM) of the same compound?
Answer: 0.702

Question: And the relative viability (SW 1573; first compound 0.4 µM)?
Answer: 0.714

Question: And the relative viability (SW 1573; first compound 1.265 µM)?
Answer: 0.439

Question: And the relative viability (SW 1573; first compound 4 µM)?
Answer: 0.383

Question: And the relative viability (NCI-H2085; first compound 0.04 µM)?
Answer: 0.975

Question: What about the relative viability (NCI-H2085; first compound 0.1265 µM) of the same compound?
Answer: 0.844

Question: And the relative viability (NCI-H2085; first compound 0.4 µM)?
Answer: 0.824

Question: And the relative viability (NCI-H2085; first compound 1.265 µM)?
Answer: 0.595

Question: And the relative viability (NCI-H2085; first compound 4 µM)?
Answer: 0.549

Question: What about the relative viability (NCI-H1975; first compound 0.04 µM) of the same compound?
Answer: 0.662

Question: What about the relative viability (NCI-H1975; first compound 0.1265 µM) of the same compound?
Answer: 0.424

Question: What about the relative viability (NCI-H1975; first compound 0.4 µM) of the same compound?
Answer: 0.578

Question: What about the relative viability (NCI-H1975; first compound 1.265 µM) of the same compound?
Answer: 0.348

Question: What about the relative viability (NCI-H1975; first compound 4 µM) of the same compound?
Answer: 0.335

Question: And the relative viability (EPLC-272H; first compound 0.04 µM)?
Answer: 0.897

Question: What about the relative viability (EPLC-272H; first compound 0.1265 µM) of the same compound?
Answer: 0.904

Question: And the relative viability (EPLC-272H; first compound 0.4 µM)?
Answer: 0.889

Question: What about the relative viability (EPLC-272H; first compound 1.265 µM) of the same compound?
Answer: 0.423

Question: And the relative viability (EPLC-272H; first compound 4 µM)?
Answer: 0.376

Question: What about the relative viability (H3255; first compound 0.04 µM) of the same compound?
Answer: 0.691

Question: And the relative viability (H3255; first compound 0.1265 µM)?
Answer: 0.62

Question: And the relative viability (H3255; first compound 0.4 µM)?
Answer: 0.619

Question: What about the relative viability (H3255; first compound 1.265 µM) of the same compound?
Answer: 0.34

Question: And the relative viability (H3255; first compound 4 µM)?
Answer: 0.296

Question: What about the relative viability (NCI-H1666; first compound 0.04 µM) of the same compound?
Answer: 0.802

Question: And the relative viability (NCI-H1666; first compound 0.1265 µM)?
Answer: 1.04

Question: What about the relative viability (NCI-H1666; first compound 0.4 µM) of the same compound?
Answer: 0.696

Question: What about the relative viability (NCI-H1666; first compound 1.265 µM) of the same compound?
Answer: 0.507

Question: What about the relative viability (NCI-H1666; first compound 4 µM) of the same compound?
Answer: 0.444

Question: And the relative viability (LCLC-97TM1; first compound 0.1265 µM)?
Answer: 0.233

Question: And the relative viability (LCLC-97TM1; first compound 0.4 µM)?
Answer: 0.232

Question: What about the relative viability (LCLC-97TM1; first compound 1.265 µM) of the same compound?
Answer: 0.133

Question: What about the relative viability (LCLC-97TM1; first compound 4 µM) of the same compound?
Answer: 0.128

Question: What about the relative viability (HCC-827; first compound 0.04 µM) of the same compound?
Answer: 0.929

Question: What about the relative viability (HCC-827; first compound 0.4 µM) of the same compound?
Answer: 0.672

Question: What about the relative viability (HCC-827; first compound 1.265 µM) of the same compound?
Answer: 1.07

Question: And the relative viability (HCC-827; first compound 4 µM)?
Answer: 1.11

Question: What about the relative viability (COR-L 105; first compound 0.04 µM) of the same compound?
Answer: 0.799

Question: What about the relative viability (COR-L 105; first compound 0.1265 µM) of the same compound?
Answer: 0.642

Question: What about the relative viability (COR-L 105; first compound 0.4 µM) of the same compound?
Answer: 0.421

Question: And the relative viability (COR-L 105; first compound 1.265 µM)?
Answer: 0.252

Question: What about the relative viability (COR-L 105; first compound 4 µM) of the same compound?
Answer: 0.255

From the supplement of paper PMC10307832
